Some test systems named below: 786-0; DMS-273; MDA-N; RXF 393; T47D; BT-549; IGROV-1; OVCAR-5; PC-3; UACC-257; HOP-18; HCT-15; SNB-19; MDA-MB-231; SN12C; LXFL 529; SNB-78; OVCAR-8; M19-MEL.
What all share (experiment): NCI-60 cell line screen, 48 h

This is an account of results in ChEMBL document CHEMBL1201862, “PubChem BioAssay data set” (2004).

Structures are written as SMILES.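 Five compound concentrations were applied to cells in 96-well plates for 48 hours; endpoints were derived by simple linear interpolation of the resulting dose-response curve. GI50 is the concentration that inhibits growth by half.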 Active and inactive are the calls of the source. No stated cut-off is given here; in the data, active = GI50 up to about 1.1 µM and inactive = higher.

In the case of `COc1ccc2nc(-c3ccc(O)cc3)cc(O)c2c1`, the GI50 in the experiment with 786-0 was 2.09 µM (inactive); in the experiment on DMS-273, 0.206 µM (active); in the experiment on MDA-N, 2.76 µM (inactive); with RXF 393, 0.137 µM (active); in the experiment with T47D it was 4.73 µM (inactive); in the experiment on BT-549, 25.9 µM (inactive). Further, the GI50 is 3.87 µM (inactive) in the experiment on IGROV-1; > 25.9 µM (inactive) in the experiment on OVCAR-5; 4.78 µM (inactive) with PC-3; 1.87 µM (inactive) with UACC-257; 4.78 µM (inactive) in the experiment on HOP-18; 1.36 µM with HCT-15. For the same molecule, the GI50 is 3.75 µM (inactive) in the experiment on SNB-19; 22.6 µM (inactive) in the experiment with MDA-MB-231; 2.78 µM (inactive) with SN12C; 1.1 µM (active) in the experiment on LXFL 529; 0.841 µM (active) in the experiment with SNB-78; 2.28 µM (inactive) in the experiment on OVCAR-8. The GI50 in the experiment on M19-MEL was 0.465 µM (active).

`C/C(CCn1[nH]c(=O)ccc1=O)=N\OCCCc1ccccc1`: the GI50 in the experiment with 786-0, in the experiment on DMS-273, with RXF 393, with IGROV-1, with OVCAR-5 and in the experiment with UACC-257 was > 100 µM (inactive) throughout. Moreover, the GI50 in the experiment on HOP-18 is > 100 µM (inactive); in the experiment with HCT-15, above 100 µM; with SNB-19 it was > 100 µM (inactive); in the experiment on SN12C, > 100 µM (inactive); in the experiment with LXFL 529 it was > 100 µM (inactive); with SNB-78, > 100 µM (inactive). In addition, the GI50 with OVCAR-8 and in the experiment with M19-MEL was > 100 µM (inactive) in each case.

As to `Fc1ccc(F)c(C2SCc3nc4ccccc4n32)c1` (stereo unspecified), the GI50 in the experiment with 786-0 was > 100 µM (inactive); in the experiment with DMS-273 it was 20.5 µM (inactive); in the experiment with RXF 393 it was 67.6 µM (inactive); with IGROV-1, > 100 µM (inactive); with OVCAR-5, > 100 µM (inactive); with UACC-257, 41.4 µM (inactive). The GI50 in the experiment on HOP-18 is 89.1 µM (inactive); in the experiment with HCT-15 it was 71.1 µM; in the experiment on SNB-19 it was > 100 µM (inactive); with SN12C it was > 100 µM (inactive); in the experiment with LXFL 529 it was 53.3 µM (inactive); with SNB-78, 52.5 µM (inactive). Besides, the GI50 with OVCAR-8 was > 100 µM (inactive); in the experiment on M19-MEL it was 48.2 µM (inactive).

In the case of `COC(=O)C1=CC(O)CCC1c1ccc(OC)cc1` (stereo unspecified), the GI50 in the experiment with 786-0, with DMS-273, in the experiment on RXF 393, with IGROV-1, in the experiment on OVCAR-5 and with UACC-257 was > 100 µM (inactive) each time. For the same molecule, the GI50 was > 100 µM (inactive) with HOP-18; above 100 µM with HCT-15; > 100 µM (inactive) with SNB-19; > 100 µM (inactive) in the experiment with SN12C; > 100 µM (inactive) in the experiment with LXFL 529; > 100 µM (inactive) with SNB-78. Further, the GI50 in the experiment with OVCAR-8 and in the experiment on M19-MEL was > 100 µM (inactive) each time.

As to `Cc1cc(C)nc(NS(=O)(=O)c2ccc(NC(=O)c3cccc4c(Nc5ccc(S(=O)(=O)Nc6nc(C)cc(C)n6)cc5)c5ccccc5nc34)cc2)n1`, the GI50 with 786-0 was 19.6 µM (inactive); in the experiment with DMS-273 it was 17.9 µM (inactive); in the experiment with RXF 393, 14.7 µM (inactive); in the experiment on IGROV-1, 32.8 µM (inactive); in the experiment with OVCAR-5, > 10 µM (inactive); in the experiment on UACC-257, 23 µM (inactive). In addition, the GI50 with HOP-18 was 12.2 µM (inactive); in the experiment with HCT-15, 21.6 µM; with SNB-19, 10.2 µM (inactive); in the experiment with SN12C it was 14.3 µM (inactive); with LXFL 529, 21.3 µM (inactive); with SNB-78, 39.6 µM (inactive). The GI50 in the experiment with OVCAR-8 is 24.7 µM (inactive); in the experiment with M19-MEL it was 29.5 µM (inactive).

With `CC(=O)C1=C(O)C(N)C2Cc3c(c(O)c4c(O)c(C)ccc4c3C)C(=O)C2(O)C1=O` (stereo unspecified), the GI50 with 786-0 was 2.58 µM (inactive); in the experiment on DMS-273, 1.73 µM (inactive); in the experiment with RXF 393, 4.43 µM (inactive); with IGROV-1, 2.96 µM (inactive); with OVCAR-5 it was 4.46 µM (inactive); with UACC-257 it was 2.48 µM (inactive). For the same molecule, the GI50 in the experiment with HOP-18 is 2.93 µM (inactive); in the experiment with HCT-15 it was 0.774 µM; in the experiment with SNB-19, 2.34 µM (inactive); in the experiment with SN12C, 1.37 µM (inactive); in the experiment with LXFL 529 it was 2.66 µM (inactive); in the experiment with SNB-78, 2.17 µM (inactive). Moreover, the results for the GI50 in the experiment with OVCAR-8 and in the experiment with M19-MEL were 1.39 µM (inactive) and 2.48 µM (inactive), respectively.

For `CN(C)CC(C)(C)C(/C=C/c1ccccc1)=N\Nc1ccccc1`, the GI50 with 786-0 is 0.457 µM (active); with DMS-273, 0.335 µM (active); with RXF 393, 18 µM (inactive); in the experiment on IGROV-1, 0.723 µM (active); with OVCAR-5, 0.31 µM (active); with UACC-257, 10.3 µM (inactive). For the same molecule, the GI50 with HOP-18 was 15.3 µM (inactive); in the experiment on HCT-15, 0.309 µM; in the experiment on SNB-19, 3.23 µM (inactive); in the experiment on SN12C, 1.71 µM (inactive); with LXFL 529, 0.197 µM (active); with SNB-78, 11 µM (inactive). In addition, the GI50 was 12.8 µM (inactive) in the experiment with OVCAR-8 and 10 µM (inactive) with M19-MEL.

Turning to `Fc1ccc(/N=C2C=C/C(=N\c3ccc(F)cc3)c3ccccc3\2)cc1`, the GI50 is > 100 µM (inactive) in the experiment on 786-0; > 100 µM (inactive) with DMS-273; 92.3 µM (inactive) with RXF 393; > 100 µM (inactive) with IGROV-1; > 100 µM (inactive) in the experiment with OVCAR-5; > 100 µM (inactive) in the experiment with UACC-257. Moreover, the GI50 with HOP-18 is > 100 µM (inactive); with HCT-15, above 100 µM; with SNB-19, 70.5 µM (inactive); in the experiment on SN12C it was > 100 µM (inactive); with LXFL 529 it was > 100 µM (inactive); in the experiment on SNB-78, > 100 µM (inactive). The GI50 with OVCAR-8 and in the experiment on M19-MEL was > 100 µM (inactive) in each case.

For the molecule `CC1OC(=O)N2CCC=CC12` (stereo unspecified), the GI50 in the experiment on 786-0, in the experiment on DMS-273, in the experiment on RXF 393, in the experiment on IGROV-1, in the experiment on OVCAR-5 and in the experiment with UACC-257 was > 100 µM (inactive) throughout. The GI50 was > 100 µM (inactive) in the experiment on HOP-18; above 100 µM in the experiment on HCT-15; > 100 µM (inactive) in the experiment with SNB-19; > 100 µM (inactive) in the experiment with SN12C; > 100 µM (inactive) in the experiment on LXFL 529; > 100 µM (inactive) with SNB-78. Also, the GI50 in the experiment on OVCAR-8 and in the experiment on M19-MEL was > 100 µM (inactive) throughout.
